Measured values taken from patent US8012998B2, “Pyrrolidine aryl-ether as NK-3 receptor antagonists” (Hoffmann—LA Roche Inc., priority 2007, dated 2011).
Values belong to the molecule of their own block, whether it stands above or below them.

Key:
human NK3 receptor = target: T1, human NK3 receptor (Homo sapiens, UniProt P29371); experiment: [3H]SR142801 competition binding assay (hNK3 receptor binding); conditions: [3H]SR142801 radioligand; membranes from HEK293 cells transiently expressing recombinant human NK3 receptor; Ki by Cheng-Prussoff; read-out: KiNK3 h
T1 construct: expressed in transfected cells; host or cells: HEK293 cells (transient expression), membrane preparation
T1 sequence (P29371 1-465): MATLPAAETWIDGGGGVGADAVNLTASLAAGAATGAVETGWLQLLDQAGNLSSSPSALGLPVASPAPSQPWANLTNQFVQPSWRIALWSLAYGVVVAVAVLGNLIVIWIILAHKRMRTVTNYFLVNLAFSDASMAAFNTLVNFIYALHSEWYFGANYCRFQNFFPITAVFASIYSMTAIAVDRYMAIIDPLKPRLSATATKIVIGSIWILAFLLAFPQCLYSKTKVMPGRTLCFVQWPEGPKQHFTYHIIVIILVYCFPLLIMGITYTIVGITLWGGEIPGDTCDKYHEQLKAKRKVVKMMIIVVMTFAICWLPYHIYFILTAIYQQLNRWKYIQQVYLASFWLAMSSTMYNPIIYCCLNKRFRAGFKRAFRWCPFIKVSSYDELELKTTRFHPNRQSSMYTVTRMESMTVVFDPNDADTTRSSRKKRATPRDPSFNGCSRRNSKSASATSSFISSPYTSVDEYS
Procedure, shortened: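 Competition binding with [3H]SR142801 on membranes of HEK293 cells transiently expressing human NK3, 5 μg protein/well, in Tris-HCl/MnCl2/phosphoramidon/BSA buffer pH 7.4. Nonspecific binding defined with 10 μM SB222200; filtration then scintillation counting. IC50 from Hill fit was converted to Ki by Cheng-Prusoff; duplicate, mean ± SEM.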

[1] = phase II trial, cited from earlier work

Molecule: Cc1cc(C(=O)N2C[C@H]([C@H](CO)Oc3ccc(Cl)cn3)[C@@H](c3ccc(Cl)c(Cl)c3)C2)cnn1 [Example 112, [(3R,4S)-3-[(R)-1-(5-Chloro-pyridin-2-yloxy)-2-hydroxy-ethyl]-4-(3,4-dichloro-phenyl)-pyrrolidin-1-yl]-(6-methyl-pyridazin-4-yl)-methanone]
Ki (human NK3 receptor): 5 nM

Molecule: Cc1cc(C(=O)N2C[C@H]([C@H](C)Oc3ccc(Cl)cn3)[C@@H](c3ccc(F)c(F)c3)C2)c(C)nn1 [Example 113, [(3R,4S)-3-[(S)-1-(5-Chloro-pyridin-2-yloxy)-ethyl]-4-(3,4-difluoro-phenyl)-pyrrolidin-1-yl]-(3,6-dimethyl-pyridazin-4-yl)-methanone]
Ki (human NK3 receptor): 17.7 nM

Molecule: CC(=O)N(C)C1(c2ccccc2)CCN(CCC[C@]2(c3ccc(Cl)c(Cl)c3)CCCN(C(=O)c3ccccc3)C2)CC1 [SR 142,801, Osanetant]
activity in the treatment of negative symptoms of schizophrenia ([1]; negative symptoms (depression, anhedonia, social isolation, memory and attention deficits)): inactive | activity on positive symptoms of schizophrenia ([1]; positive symptoms (altered behaviour, delusion, hallucinations, extreme emotions, excited motor activity, incoherent speech)): active

Molecule: [(3S,4R)-3-[(R)-1-(5-Chloro-pyridin-2-yloxy)-ethyl]-4-(3,4-dichloro-phenyl)-pyrrolidin-1-yl]-(6-methoxy-pyridin-3-yl)-methanone and [(3R,4S)-3-[(S)-1-(5-Chloro-pyridin-2-yloxy)-ethyl]-4-(3,4-dichloro-phenyl)-pyrrolidin-1-yl]-(6-methoxy-pyridin-3-yl)-methanone [Example 21]
Ki (human NK3 receptor): 5.6 nM

Next, values leading:

Ki (human NK3 receptor): 85.4 nM
Molecule: Cc1cc(C(=O)N2C[C@H]([C@H](C)Oc3ccc(C#N)cn3)[C@@H](c3ccc(F)c(F)c3)C2)c(C)nn1 [Example 114, 6-{(S)-1-[(3R,4S)-4-(3,4-Difluoro-phenyl)-1-(3,6-dimethyl-pyridazine-4-carbonyl)-pyrrolidin-3-yl]-ethoxy}-nicotinonitrile]

Ki (human NK3 receptor): 4 nM
Molecule: Cc1cc(C(=O)N2C[C@H]([C@H](C)Oc3ccc(Cl)cn3)[C@@H](c3ccc(F)cc3)C2)cnn1 [Example 115, [(3R,4S)-3-[(S)-1-(5-Chloro-pyridin-2-yloxy)-ethyl]-4-(4-fluoro-phenyl)-pyrrolidin-1-yl]-(6-methyl-pyridazin-4-yl)-methanone]

Ki (human NK3 receptor): 28 nM
Molecule: Cc1cc(C(=O)N2C[C@H]([C@H](CO)Oc3ccc(Cl)cn3)[C@@H](c3ccc(F)c(F)c3)C2)cnn1 [Example 116, [(3R,4S)-3-[(R)-1-(5-Chloro-pyridin-2-yloxy)-2-hydroxy-ethyl]-4-(3,4-difluoro-phenyl)-pyrrolidin-1-yl]-(6-methyl-pyridazin-4-yl)-methanone]

Ki (human NK3 receptor): 3 nM
Molecule: Cc1cc(C(=O)N2C[C@H]([C@H](C)Oc3ccc(C(F)(F)F)cn3)[C@@H](c3ccc(Cl)cc3)C2)cnn1 [Example 119, {(3S,4R)-3-(4-Chloro-phenyl)-4-[(S)-1-(5-trifluoromethyl-pyridin-2-yloxy)-ethyl]-pyrrolidin-1-yl}-(6-methyl-pyridazin-4-yl)-methanone]
